Laboratory results from article PMC12146557 (iScience, 2025).

How the values were obtained:
HsUbc13 (human Ubc13) = target: T1, HsUbc13 (human Ubc13) (Homo sapiens, UniProt P61088); experiment: LC-HRMS of tryptic peptides; assay type: biochemical
T1 sequence (P61088 1-152): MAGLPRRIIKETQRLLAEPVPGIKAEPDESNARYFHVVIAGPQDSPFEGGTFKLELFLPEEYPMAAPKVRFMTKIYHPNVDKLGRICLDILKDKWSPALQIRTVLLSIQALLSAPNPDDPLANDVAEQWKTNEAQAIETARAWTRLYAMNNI

[1] = target: T2, PfUbc13 (Plasmodium falciparum ubiquitin-conjugating enzyme 13) (Plasmodium falciparum, UniProt Q8I3J4); experiment: LC-HRMS of tryptic peptides; assay type: biochemical
T2 sequence (Q8I3J4 1-152): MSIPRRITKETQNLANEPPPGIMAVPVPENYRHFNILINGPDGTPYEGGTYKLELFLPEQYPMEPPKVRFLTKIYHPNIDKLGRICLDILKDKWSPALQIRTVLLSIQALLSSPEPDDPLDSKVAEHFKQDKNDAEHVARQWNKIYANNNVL
T2 sequence (Q8I5F9 1-1140 partner): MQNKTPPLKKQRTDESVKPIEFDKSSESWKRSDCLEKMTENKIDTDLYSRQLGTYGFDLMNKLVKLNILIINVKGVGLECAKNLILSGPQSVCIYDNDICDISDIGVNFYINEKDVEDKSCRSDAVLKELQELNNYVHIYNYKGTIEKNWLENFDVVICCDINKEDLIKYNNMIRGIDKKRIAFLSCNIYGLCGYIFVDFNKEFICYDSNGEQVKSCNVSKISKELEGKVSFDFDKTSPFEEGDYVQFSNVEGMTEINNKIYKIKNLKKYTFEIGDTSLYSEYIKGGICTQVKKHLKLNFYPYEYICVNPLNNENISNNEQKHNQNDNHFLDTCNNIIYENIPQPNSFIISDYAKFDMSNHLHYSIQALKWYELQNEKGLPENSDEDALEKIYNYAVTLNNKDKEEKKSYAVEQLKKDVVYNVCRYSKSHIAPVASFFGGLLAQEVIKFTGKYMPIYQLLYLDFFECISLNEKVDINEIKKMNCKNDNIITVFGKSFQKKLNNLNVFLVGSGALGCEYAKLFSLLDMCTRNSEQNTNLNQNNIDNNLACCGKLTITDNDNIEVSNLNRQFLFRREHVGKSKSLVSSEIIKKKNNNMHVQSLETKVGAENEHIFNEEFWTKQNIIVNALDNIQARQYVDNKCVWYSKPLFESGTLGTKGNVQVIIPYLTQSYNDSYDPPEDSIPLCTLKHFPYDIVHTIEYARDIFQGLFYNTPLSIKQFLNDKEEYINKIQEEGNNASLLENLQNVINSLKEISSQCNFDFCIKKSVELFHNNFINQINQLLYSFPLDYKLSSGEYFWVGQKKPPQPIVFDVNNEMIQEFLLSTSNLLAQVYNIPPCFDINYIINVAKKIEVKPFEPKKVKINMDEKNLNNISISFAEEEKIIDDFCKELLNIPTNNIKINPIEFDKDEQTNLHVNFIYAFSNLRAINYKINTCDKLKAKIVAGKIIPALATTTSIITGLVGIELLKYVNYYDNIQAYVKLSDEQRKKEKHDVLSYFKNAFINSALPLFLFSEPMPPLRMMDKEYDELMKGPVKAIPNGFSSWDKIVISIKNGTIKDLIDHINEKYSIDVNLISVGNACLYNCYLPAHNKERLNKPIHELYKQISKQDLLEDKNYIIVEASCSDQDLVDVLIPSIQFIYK

SMILES: Cc1ccc(S(=O)(=O)c2ccc([N+](=O)[O-])o2)cc1 [NSC697923]
- Ki (HsUbc13 (human Ubc13)): 280 ± 70 nM
- Ki [1]: 360 ± 110 nM
